Measured values reported in patent US20240336574A1 (LATIGO BIOTHERAPEUTICS, INC., priority 2021, published 2024).
Read-outs that look alike come from different tables or passages of the source.

Target: T1, recombinant human NaV1.8 stably transfected HEK cells (Homo sapiens, UniProt Q9Y5Y9)
T1 construct: expressed in transfected cells; host or cells: HEK cells, stably transfected
Test: Compound profiling on NaV1.8, human NaV1.8 cell line, SyncroPatch384PE automated patch clamp assay (Example 115, third set of compounds, Table 27)
Assay type: cell-based
Details: human NaV1.8 HEK cells, Table 27 (third set of compounds)
Experimental: Compound Profiling on NaV1.8 Human NaV1.8 Cell Line SyncroPatch384PE Assay
Compounds were tested on recombinant human NaV1.8 stably transfected HEK cells using the SyncroPatch384PE system, an automated patch clamp device. Cells were cultured at 37° C./5% CO2 in DMEM medium supplemented with GlutaMAX I, NEAA 1%, FBS 10% and seeded in T175 flasks. Cells were cultured at 30° C. one day prior to recording sodium currents. On the day of the recordings, cells were detached with 0.05% Trypsin-EDTA, resuspended in serum free DMEM medium and placed into the SyncroPatch384PE 6° C. pre-cooled cell hotel and shaken at 200 rpm. Intracellular solution (IC) contained, in mM: 10, CsCl; 110, CsF; 20, EGTA; 10, HEPES. Extracellular solution (EC) contained, in mM: 140, NaCl; 4, KCl; 5, Glucose; 10, HEPES; 2, CaCl2; 1, MgCl2. Washing solution contained, in mM: 40, NMDG; 100, NaCl; 4, KCl; 10, Glucose; 10, HEPES; 5, CaCl2; 1, MgCl2.
Compounds were tested in quadruplicates in 0.1% DMSO and 0.030% Pluronic Acid. Compounds were diluted 1:3.33 in EC solution to create a 10-point concentration response curve, spanning a final concentration range from 10-0.0002 μM in the assay plate. Compounds with low nM potency were retested using a lower concentration range (1-0.00002 μM). Each plate contained tetracaine and another tool compound as positive controls. Up to 7 compounds were tested on one plate. 150 μM tetracaine and 0.1% DMSO were used as high and low controls, respectively.
Whole cell patch clamp recordings were conducted according to Nanion's standard procedure for SyncroPatch384PE®. Cells were held at a holding potential of −120 mV. A depolarization step to 10 mV for 30 ms was applied (P1 measurement), followed by a hyperpolarization step to −100 mV for 100 ms. An inactivation step at −40 mV for 10 sec was applied before stepping to −100 mV for 20 ms, followed by a step to 10 mV for 30 ms (P2 measurement) and then back to −100 mV for 30 ms. Sweep interval was 15 sec with a sampling rate of 10 kHz. Following establishment of the whole-cell configuration in EC, two washing steps with reference buffer were performed to stabilize the baseline. Compounds were then applied by the SynchroPatch into each well and the current was recorded for five minutes in EC, followed by application of tetracaine to achieve full block at the end of the experiment. The potency of the compounds was assessed on two read-outs, resting state block (P1 measurement) or inactivated state block (P2 measurement) to obtain IC50 values. Values were normalized to high (tetracaine) and low (DMSO) controls.

[1] = inactivated state block (P2 measurement), read-out: P2 IC50
[2] = resting state block (P1 measurement), read-out: P1 IC50

T1 sequence (Q9Y5Y9 whole entry): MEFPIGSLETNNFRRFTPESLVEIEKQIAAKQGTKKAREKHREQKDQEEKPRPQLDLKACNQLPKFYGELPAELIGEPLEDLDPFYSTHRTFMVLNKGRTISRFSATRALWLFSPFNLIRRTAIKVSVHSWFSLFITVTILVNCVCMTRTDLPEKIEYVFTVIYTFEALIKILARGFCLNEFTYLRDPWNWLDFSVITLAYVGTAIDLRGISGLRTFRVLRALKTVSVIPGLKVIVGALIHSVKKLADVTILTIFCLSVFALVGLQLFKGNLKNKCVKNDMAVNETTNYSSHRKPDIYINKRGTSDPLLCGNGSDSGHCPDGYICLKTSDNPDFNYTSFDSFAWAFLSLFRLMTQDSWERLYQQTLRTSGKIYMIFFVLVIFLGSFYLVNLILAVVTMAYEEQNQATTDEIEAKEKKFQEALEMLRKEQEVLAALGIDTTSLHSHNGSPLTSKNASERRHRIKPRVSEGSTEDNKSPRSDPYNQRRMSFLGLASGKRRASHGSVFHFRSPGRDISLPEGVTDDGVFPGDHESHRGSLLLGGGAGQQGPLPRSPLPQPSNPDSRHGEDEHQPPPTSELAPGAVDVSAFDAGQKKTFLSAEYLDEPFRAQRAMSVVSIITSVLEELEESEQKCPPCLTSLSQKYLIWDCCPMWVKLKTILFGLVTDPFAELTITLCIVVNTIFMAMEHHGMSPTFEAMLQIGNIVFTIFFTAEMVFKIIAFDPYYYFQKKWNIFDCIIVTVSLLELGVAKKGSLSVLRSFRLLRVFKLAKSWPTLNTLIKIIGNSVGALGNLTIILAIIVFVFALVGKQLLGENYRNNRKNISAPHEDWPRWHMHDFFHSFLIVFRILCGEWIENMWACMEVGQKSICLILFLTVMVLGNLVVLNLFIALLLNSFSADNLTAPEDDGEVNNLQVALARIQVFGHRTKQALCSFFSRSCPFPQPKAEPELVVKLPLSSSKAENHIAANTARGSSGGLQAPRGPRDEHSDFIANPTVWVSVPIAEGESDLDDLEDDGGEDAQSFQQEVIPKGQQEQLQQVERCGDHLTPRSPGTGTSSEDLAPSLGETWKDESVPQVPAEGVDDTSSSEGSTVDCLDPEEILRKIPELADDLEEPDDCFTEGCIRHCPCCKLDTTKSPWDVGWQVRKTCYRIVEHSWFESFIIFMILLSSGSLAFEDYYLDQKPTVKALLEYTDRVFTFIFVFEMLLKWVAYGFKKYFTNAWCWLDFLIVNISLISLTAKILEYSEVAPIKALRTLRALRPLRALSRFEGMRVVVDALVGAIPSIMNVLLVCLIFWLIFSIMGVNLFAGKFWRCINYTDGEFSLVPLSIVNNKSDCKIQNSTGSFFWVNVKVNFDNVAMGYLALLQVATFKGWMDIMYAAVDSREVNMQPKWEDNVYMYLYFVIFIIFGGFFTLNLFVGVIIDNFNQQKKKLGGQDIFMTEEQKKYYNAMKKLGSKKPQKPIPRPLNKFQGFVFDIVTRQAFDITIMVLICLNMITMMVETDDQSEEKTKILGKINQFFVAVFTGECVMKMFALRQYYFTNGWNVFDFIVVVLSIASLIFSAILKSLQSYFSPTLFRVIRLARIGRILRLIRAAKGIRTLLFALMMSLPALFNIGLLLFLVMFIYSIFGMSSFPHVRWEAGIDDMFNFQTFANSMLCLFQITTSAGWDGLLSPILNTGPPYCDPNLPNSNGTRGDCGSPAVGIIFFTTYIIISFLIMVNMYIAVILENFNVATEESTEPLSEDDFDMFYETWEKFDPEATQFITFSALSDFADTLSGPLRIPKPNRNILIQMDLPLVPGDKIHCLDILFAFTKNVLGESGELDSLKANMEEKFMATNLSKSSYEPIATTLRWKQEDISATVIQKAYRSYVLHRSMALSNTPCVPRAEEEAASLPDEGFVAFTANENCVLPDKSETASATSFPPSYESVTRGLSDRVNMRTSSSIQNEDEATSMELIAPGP

| Compound | IC50 [1] | IC50 [2] |
| --- | --- | --- |
| Cc1cc(F)ccc1Oc1nnc(C(F)(F)F)cc1C(=O)Nc1ccc(=O)[nH]c1C [Compound 92, 3-(4-Fluoro-2-methylphenoxy)-N-(2-methyl-6-oxo-1,6-dihydropyridin-3-yl)-6-(trifluoromethyl)pyridazine-4-carboxamide] | > 5000 nM | > 5000 nM |
| O=C(Nc1cc[nH]c(=O)c1)c1cc(C(F)(F)F)nnc1Oc1ccc(F)cc1Cl [Compound 89, 3-(2-Chloro-4-fluorophenoxy)-N-(2-oxo-1,2-dihydropyridin-4-yl)-6-(trifluoromethyl)pyridazine-4-carboxamide] | 1000 to 5000 nM | 1000 to 5000 nM |
| COc1cc(C#N)ccc1Oc1nnc(C(F)(F)F)cc1C(=O)Nc1cccc(S(C)(=O)=O)c1 [Compound 75] | ≤ 200 nM | ≤ 200 nM |
| COc1cc(F)ccc1Oc1nnc(C(F)(F)F)cc1C(=O)Nc1cccc(-c2nncn2C)c1 [Compound 38] | 1000 to 5000 nM | 1000 to 5000 nM |
| COc1cc(F)ccc1Oc1nnc(C(F)(F)F)cc1C(=O)Nc1cccc(S2(=O)=NCCC2)c1 (stereo not shown) [Compound 45] | 201 to 500 nM | 201 to 500 nM |
| Cc1cc(Br)ccc1Oc1nnc(C(F)(F)F)cc1C(=O)Nc1cccc(S(C)(=O)=O)c1 [Compound 82] | ≤ 200 nM | ≤ 200 nM |
| COC(=O)c1cncc(NC(=O)c2cc(C(F)(F)F)nnc2Oc2ccc(F)cc2OC)n1 [Compound 46] | > 5000 nM | > 5000 nM |
| COc1ccc(F)cc1Oc1nnc(C(F)(F)F)cc1C(=O)Nc1cccc(S(N)(=O)=O)c1 [Compound 122, 3-(5-Fluoro-2-methoxyphenoxy)-N-(3-sulfamoylphenyl)-6-(trifluoromethyl)pyridazine-4-carboxamide] | 201 to 500 nM | 501 to 1000 nM |
| Cc1cc(C2CC2)ccc1Oc1nnc(C(F)(F)F)cc1C(=O)Nc1cccc(S(C)(=O)=O)c1 [Compound 87] | ≤ 200 nM | ≤ 200 nM |
| Cc1cc(F)ccc1Oc1nnc(C(F)(F)F)cc1C(=O)Nc1cccc(NS(C)(=O)=O)c1 [Compound 8] | 1000 to 5000 nM | 1000 to 5000 nM |
| COc1cc(F)ccc1Oc1nnc(C(F)(F)F)cc1C(=O)Nc1cccc(S(C)(=O)=O)n1 [Compound 15] | 1000 to 5000 nM | > 5000 nM |
| Cc1cc(-c2cnoc2)ccc1Oc1nnc(C(F)(F)F)cc1C(=O)Nc1cccc(S(C)(=O)=O)c1 [Compound 132, N-(3-Methanesulfonylphenyl)-3-[2-methyl-4-(1,2-oxazol-4-yl)phenoxy]-6-(trifluoromethyl)pyridazine-4-carboxamide] | ≤ 200 nM | 201 to 500 nM |
| CS(=O)(=O)c1cccc(NC(=O)c2cc(C(F)(F)F)nnc2Oc2ccc(F)cc2O)c1 [Compound 130, 3-(4-Fluoro-2-hydroxyphenoxy)-N-(3-(methylsulfonyl)phenyl)-6-(trifluoromethyl)pyridazine-4-carboxamide] | 1000 to 5000 nM | > 5000 nM |
| CSc1cccc(NC(=O)c2cc(C(F)(F)F)nnc2Oc2cc(F)ccc2Cl)c1 [Compound 111] | > 5000 nM | > 5000 nM |
| COc1ccc(F)cc1Oc1nnc(C(F)(F)F)cc1C(=O)Nc1cccc(S(C)(=O)=O)c1 [Compound 81] | 1000 to 5000 nM | 201 to 500 nM |
| Cc1cc(F)ccc1Oc1nnc(C(F)(F)F)cc1C(=O)Nc1ccn2nnnc2c1 [Compound 135, 3-(4-Fluoro-2-methylphenoxy)-N-(tetrazolo[1,5-a]pyridin-7-yl)-6-(trifluoromethyl)pyridazine-4-carboxamide] | 501 to 1000 nM | ≤ 200 nM |
| CNC(=O)c1cccc(NC(=O)c2cc(C(F)(F)F)nnc2Oc2ccc(F)cc2OC)c1 [Compound 129, 3-(4-Fluoro-2-methoxyphenoxy)-N-(3-(methylcarbamoyl)phenyl)-6-(trifluoromethyl)pyridazine-4-carboxamide] | 201 to 500 nM | 201 to 500 nM |
| Cc1cc(OC(F)(F)F)ccc1Oc1nnc(C(F)(F)F)cc1C(=O)Nc1cccc(S(C)(=O)=O)c1 [Compound 35] | ≤ 200 nM | ≤ 200 nM |
| Cc1cc(F)ccc1Oc1nnc(C(F)(F)F)cc1C(=O)Nc1ccc(C)c(S(C)(=O)=O)c1 [Compound 106, 3-(4-Fluoro-2-methylphenoxy)-N-(4-methyl-3-(methylsulfonyl)phenyl)-6-(trifluoromethyl)pyridazine-4-carboxamide] | 201 to 500 nM | 201 to 500 nM |

| Compound | IC50 [1] | IC50 [2] |
| --- | --- | --- |
| CS(=O)(=O)c1cccc(NC(=O)c2cc(C(F)(F)F)nnc2Oc2cc(OC(F)(F)F)ccc2F)c1 [Compound 44] | 501 to 1000 nM | 201 to 500 nM |
| CNC(=O)c1ccc(NC(=O)c2cc(C(F)(F)F)nnc2Oc2ccc(F)cc2OC)cc1 [Compound 127, 3-(4-Fluoro-2-methoxyphenoxy)-N-(4-(methylcarbamoyl)phenyl)-6-(trifluoromethyl)pyridazine-4-carboxamide] | 501 to 1000 nM | 501 to 1000 nM |
| Cc1cc(C#N)ccc1Oc1nnc(C(F)(F)F)cc1C(=O)Nc1cccc(C(N)=O)c1 [Compound 79] | 201 to 500 nM | 201 to 500 nM |
| CS(=O)(=O)c1ccc(F)c(NC(=O)c2cc(C(F)(F)F)nnc2Oc2cc(F)ccc2Cl)c1 [Compound 74] | 501 to 1000 nM | ≤ 200 nM |
| COc1cc(F)ccc1Oc1nnc(C(F)(F)F)cc1C(=O)Nc1cccc(NS(C)(=O)=O)c1 [Compound 18] | 501 to 1000 nM | 1000 to 5000 nM |
| Cc1cc(F)ccc1Oc1nnc(C(F)(F)F)cc1C(=O)Nc1ccc(S(C)(=O)=O)cc1 [Compound 40] | > 5000 nM | 1000 to 5000 nM |
| CS(=O)(=O)c1ccc(F)c(NC(=O)c2cc(C(F)(F)F)nnc2Oc2ccc(F)cc2Cl)c1 [Compound 72] | ≤ 200 nM | ≤ 200 nM |
| CS(=O)(=O)c1cncc(NC(=O)c2cc(C(F)(F)F)nnc2Oc2ccc(F)cc2Cl)c1 [Compound 66] | 1000 to 5000 nM | > 5000 nM |
| COc1cc(C#N)ccc1Oc1nnc(C(F)(F)F)cc1C(=O)Nc1cc(S(C)(=O)=O)ccc1F [Compound 77] | 201 to 500 nM | 201 to 500 nM |
| COc1cc(NC(=O)c2cc(C(F)(F)F)nnc2Oc2ccc(F)cc2C)ccn1 [Compound 86] | 501 to 1000 nM | 501 to 1000 nM |
| COc1cc(F)ccc1Oc1nnc(C(F)(F)F)cc1C(=O)Nc1ccc(C(N)=O)cc1 [Compound 27] | ≤ 200 nM | ≤ 200 nM |
| COc1cc(NC(=O)c2cc(C(F)(F)F)nnc2Oc2ccc(F)cc2OC)ccn1 [Compound 33] | ≤ 200 nM | ≤ 200 nM |
| COc1ccc(F)cc1Oc1nnc(C(F)(F)F)cc1C(=O)Nc1cccc(S(C)(=N)=O)c1 (stereo not shown) [Compound 116] | 201 to 500 nM | 201 to 500 nM |
| Cc1cc(F)ccc1Oc1nnc(C(F)(F)F)cc1C(=O)Nc1cccc([S@@](C)(=N)=O)c1 [Compound 103, (S)-3-(4-fluoro-2-methylphenoxy)-N-(3-(S-methylsulfonimidoyl)phenyl)-6-(trifluoromethyl)pyridazine-4-carboxamide] | 201 to 500 nM | > 5000 nM |
| CS(=O)(=O)c1cccc(NC(=O)c2cc(C(F)(F)F)nnc2Oc2ccc(OC(F)F)cc2)c1 [Compound 34] | ≤ 200 nM | ≤ 200 nM |
| NC(=O)c1cncc(NC(=O)c2cc(C(F)(F)F)nnc2Oc2cc(F)ccc2Cl)c1 [Compound 84] | > 5000 nM | > 5000 nM |
| Cc1c[nH]c(=O)cc1NC(=O)c1cc(C(F)(F)F)nnc1Oc1ccc(F)cc1C [Compound 90, 3-(4-Fluoro-2-methylphenoxy)-N-(5-methyl-2-oxo-1,2-dihydropyridin-4-yl)-6-(trifluoromethyl)pyridazine-4-carboxamide] | > 5000 nM | > 5000 nM |
| COc1c(Oc2ncc(C(F)(F)F)nc2C(=O)Nc2cccc(S(C)(=N)=O)c2)ccc(F)c1F (stereo not shown) [Compound 136, 3-(3,4-difluoro-2-methoxy-phenoxy)-N-[3-(methylsulfonimidoyl)phenyl]-6-(trifluoromethyl)pyrazine-2-carboxamide] | ≤ 200 nM | ≤ 200 nM |
| Cc1cc(C#N)ccc1Oc1nnc(C(F)(F)F)cc1C(=O)Nc1cccc(S(N)(=O)=O)c1 [Compound 123, 3-(4-Cyano-2-methylphenoxy)-N-(3-sulfamoylphenyl)-6-(trifluoromethyl)pyridazine-4-carboxamide] | ≤ 200 nM | ≤ 200 nM |
